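Protocol summary: plate cells (96-well), add compound at 5 concentrations, incubate 48 h, interpolate endpoints linearly. GI50 is the concentration that inhibits growth by half.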 Active and inactive are the calls of the source. Cut-off read from the data, not from the text of the source: active = GI50 up to about 1.1 µM and inactive = higher.
How the values were obtained:
Experiment in all cases: NCI anticancer screen, dose series, 48 h
[1] = system: NCI-H460
[2] = system: M14
[3] = system: SNB-19
[4] = system: OVCAR-3
[5] = system: MDA-MB-435
[6] = system: Hs-578T
[7] = system: SR
[8] = system: SF-295
[9] = system: OVCAR-8
[10] = system: SK-MEL-2
[11] = system: MDA-MB-231
[12] = system: SF-539
[13] = system: HOP-62
[14] = system: RPMI-8226
[15] = system: IGROV-1
[16] = system: TK-10
[17] = system: U-251
[18] = system: NCI-H23
[19] = system: A549
[20] = system: HOP-92

Measured: GI50

OCCNCCN1CCN(CCCN2c3ccccc3Sc3ccc(C(F)(F)F)cc32)CC1
inactive: [1] 23.2 µM | [2] 15.3 µM | [3] 24.7 µM | [4] 22.7 µM | [5] 18.8 µM | [6] 47.3 µM | [7] > 100 µM | [8] 20.4 µM | [9] 18 µM | [10] 21.5 µM | [11] 20.9 µM | [12] 20.2 µM | [13] 21.4 µM | [14] > 100 µM | [15] > 100 µM | [16] 22.1 µM | [17] 20.3 µM | [18] 27.2 µM | [19] 24 µM

OC1(CCc2ccccc2)COC(C(F)(F)F)(C(F)(F)F)C1 (centres undefined)
inactive: [1] > 100 µM | [2] > 100 µM | [3] > 100 µM | [4] > 100 µM | [5] > 100 µM | [6] > 100 µM | [7] > 100 µM | [8] > 100 µM | [9] > 100 µM | [10] > 100 µM | [11] > 100 µM | [12] > 100 µM | [13] > 100 µM | [14] 97.3 µM | [15] > 100 µM | [16] > 100 µM | [17] > 100 µM | [18] > 100 µM | [19] > 100 µM

COc1ccc(C2CC(c3c(O)ccc4ccccc34)=NN2c2ccc([N+](=O)[O-])cc2[N+](=O)[O-])cc1OC (centres undefined)
inactive: [1] 14.6 µM | [2] 32.7 µM | [3] 15.3 µM | [4] 12.1 µM | [5] 24 µM | [20] 19.4 µM | [6] 19.4 µM | [8] 12.2 µM | [9] 5.32 µM | [10] 19.4 µM | [11] 20.9 µM | [12] 26.1 µM | [13] 21.5 µM | [14] 3.87 µM | [15] 13 µM | [16] 24.3 µM | [17] 17.6 µM | [18] 6.82 µM | [19] 17.1 µM

COc1ccc(/C=C2\NC(=S)N(/C=C3\C(=O)Oc4ccccc4C3=O)C2=O)cc1OC
inactive: [1] > 100 µM | [2] > 100 µM | [3] > 100 µM | [4] 87.3 µM | [5] > 100 µM | [20] 73.6 µM | [6] 87.5 µM | [8] > 100 µM | [9] > 100 µM | [10] > 100 µM | [11] > 100 µM | [12] > 100 µM | [13] > 100 µM | [14] > 100 µM | [15] 78.3 µM | [16] > 100 µM | [17] > 100 µM | [18] > 100 µM | [19] > 100 µM

COc1cc(OC)c2c(C)cc(=O)oc2c1
inactive: [2] > 100 µM | [3] > 100 µM | [4] > 100 µM | [5] 88.9 µM | [6] 61.1 µM | [7] 45.1 µM | [8] 75.9 µM | [9] 55.7 µM | [10] > 100 µM | [11] 70.3 µM | [12] 34.8 µM | [13] > 100 µM | [14] 44.6 µM | [15] 35.2 µM | [16] 66.4 µM | [17] 84.7 µM | [18] 64.4 µM | [19] 55.7 µM

CC1CC2(OC2C)C(=O)OC2CCN(C)C/C=C(/COC(=O)C1(C)O)C2=O (centres undefined)
inactive: [1] > 100 µM | [2] > 100 µM | [3] > 100 µM | [4] > 100 µM | [5] > 100 µM | [20] > 100 µM | [6] > 100 µM | [8] > 100 µM | [9] > 100 µM | [10] > 100 µM | [11] > 100 µM | [12] > 100 µM | [13] > 100 µM | [14] > 100 µM | [15] > 100 µM | [16] > 100 µM | [17] > 100 µM | [18] > 100 µM | [19] > 100 µM

NS(=O)(=O)c1cc2c(cc1Cl)N=C(CCC(=O)O)NS2(=O)=O
inactive: [1] > 100 µM | [2] > 100 µM | [3] > 100 µM | [4] > 100 µM | [5] > 100 µM | [20] > 100 µM | [6] > 100 µM | [8] > 100 µM | [9] > 100 µM | [10] > 100 µM | [11] > 100 µM | [12] > 100 µM | [13] > 100 µM | [14] > 100 µM | [15] > 100 µM | [16] > 100 µM | [17] > 100 µM | [18] > 100 µM | [19] > 100 µM

Cc1cc2nnn(C3CCCO3)c2cc1C (centres undefined)
inactive: [1] > 100 µM | [2] > 100 µM | [4] > 100 µM | [5] > 100 µM | [6] > 100 µM | [7] > 100 µM | [8] > 100 µM | [9] > 100 µM | [10] > 100 µM | [11] > 100 µM | [12] > 100 µM | [13] > 100 µM | [15] > 100 µM | [16] > 100 µM | [17] > 100 µM | [18] > 100 µM | [19] > 100 µM

— ChEMBL document CHEMBL1201862, “PubChem BioAssay data set” (2004)
